Measured values as given in ChEMBL document CHEMBL1123699, “Selective cytotoxicity of a system L specific amino acid nitrogen mustard” (J Med Chem, 1987).

Assays:
[1] = test system: L1210; test: Inhibitory activity against leucine-preferring transport system (system L) was determined in murine leukemia L1210 cell lines; format: functional, cell-based, Mus musculus
[2] = test system: L1210; test: Inhibitory activity against murine leukemia cells (L1210) was determined; format: functional, cell-based, Mus musculus
[3] = test system: L1210; test: Lethal dose was determined for […] activity against murine leukemia cells (L1210); format: toxicity, cell-based; details: mouse
[4] = test system: CFU-C; test: Lethal dose was determined for […] activity against […]; format: toxicity, cell-based; details: mouse
[5] = rat
[6] = Therapeutic index is the ratio of LD90 of CFU-C to LD90 of L1210 cell lines; format: cell-based; details: mouse, CFU-C and L1210 cells

Compound | Ki [1] | Ki [2] | LD90 [3] | LD90 [4] | half-life [5] | selectivity ratio [6]
NC1(C(=O)O)CCc2ccccc2C1 (stereo not given) | 5 µM | – | – | – | – | –
NC1(C(=O)O)CCc2c(cccc2N(CCCl)CCCl)C1 (stereo not given) | 15.2 µM | – | – | – | – | –
N[C@@H](Cc1ccc(N(CCCl)CCCl)cc1)C(=O)O [MELPHALAN] | – | 112 µM | 35 µM | 14 µM | – | –
NC1(C(=O)O)CCc2ccc(N(CCCl)CCCl)cc2C1 (stereo not given) | – | 0.22 µM | 23.8 µM | 26.5 µM | 40 min | 0.9
